Experimental data taken from patent US10168342B2, “Lipid probes and uses thereof” (THE SCRIPPS RESEARCH INSTITUTE, priority 2015, dated 2019).

How the values were obtained:
[1] = test system: NAEs, NATs, AA and 2-AG in Neuro2a cells; experiment: Targeted LC-MS (MRM) analysis of lipids from Neuro2a cells; type: cell-based, mouse; details: for NAEs when co-treated with PF-7845 (1 μM) / AA levels: 10 μM; for AA levels / 2-AG levels / cellular concentrations of NAEs and NATs: Neuro2a cells; for 2-AG levels / cellular concentrations of NAEs and NATs: 10 μM (PF-7845 1 μM); for cellular concentrations of NAEs and NATs: 6 h
Experimental: Discovery metabolite profiling was performed as described by Saghatelian et al., “Assignment of endogenous substrates to enzymes by global metabolite profiling,” Biochemistry 43:14332-14339 (2004) with several modifications. […] The media from the cells was removed and cells were washed with DPBS (2×5.0 mL) before adding freshly prepared media solutions containing vehicle or compound. After incubating for 6 h at 37° C. and subsequent removal of the media, the cells were harvested by scrapping in cold DPBS (3 mL) and pelleted by centrifugation in glass vials. The pellets were washed once with cold DPBS (3 mL) and then cold […] (2:1) (3 mL) was added. After vortexing, the vials were centrifuged (3,000×g, 10 min, 4° C.) and the bottom (organic) layer was transferred to a new glass vial and concentrated under a stream of N2. Samples were stored at −80° C. until the day of analysis when they were reconstituted in Mobile Phase A (100 μL, see below).
Neuro2a cells were treated and lipids extracted as described above. A mixture of internal standards [AEA-d4 (10 pmol), 2-AG-d5 (100 pmol), AA-d8 (100 pmol), PEA-d4 (100 pmol), PDA (1.0 nmol)] was added to the organic phase prior to extracting cells. NAEs, MAGs, AA and NATs were analyzed similarly to previously described methods (Saghatelian et al., 2004). The following MS parameters were used to measure the indicated metabolites by MRM (precursor ion, product ion, collision energy, polarity): NAE 20:4 (AEA) (348, 62, 12, positive), AEA-d4 (352, 66, 12, positive), NAE 16:0 (PEA) (300, 62, 12, positive), PEA-d4 (304, 62, 12, positive), NAE 18:0 (328, 62, 12, positive), NAE 18:1 (326, 62, 12, positive), NAE 18:2 (324, 62, 12, positive), 2-AG (379, 287, 8, positive), 2-AG-d5 (384, 287, 8, positive), AA (303, 259, 4, negative), AA-d8 (311, 267, 4, negative), NAT 20:4 (410, 80, 35, negative), NAT 22:1 (444, 80, 35, negative), NAT 24:1 (472, 80, 35, negative), NAT 24:0 (474, 80, 35, negative), NAT 26:0 (502, 80, 35, negative). The indicated lipids were quantified by measuring the area under the peak relative to an internal standard (AEA-d4 for AEA and NAE 18:2; PEA-d4 for PEA, NAE 18:1 and NAE 18:0; 2-AG-d5 for 2-AG; AA-d8 for AA and 20:4 NAT; PDA for all other NATs).

[2] = molecular target: T1, A-DA lipid probe targets in A549 cells (Homo sapiens, UniProt Q8N5I4); experiment: In situ competitive SILAC profiling with A-DA probe in (PMA-stimulated) A549 cells; details: A549 cells, A-DA probe
T1 sequence (Q8N5I4 1-330): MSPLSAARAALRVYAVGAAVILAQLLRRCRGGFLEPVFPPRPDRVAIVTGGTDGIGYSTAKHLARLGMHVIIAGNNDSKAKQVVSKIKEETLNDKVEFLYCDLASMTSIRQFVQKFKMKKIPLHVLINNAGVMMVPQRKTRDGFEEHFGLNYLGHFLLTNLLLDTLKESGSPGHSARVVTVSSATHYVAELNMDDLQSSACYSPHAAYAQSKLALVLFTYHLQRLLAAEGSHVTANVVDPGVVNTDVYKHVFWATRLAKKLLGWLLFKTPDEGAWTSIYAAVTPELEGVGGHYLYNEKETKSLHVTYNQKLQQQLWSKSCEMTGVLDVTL

[3] = molecular target: A-DA lipid probe targets in A549 cells (Homo sapiens, UniProt Q9NX47); experiment: as above; details: A549 cells, A-DA probe
[4] = molecular target: T2, A-DA lipid probe targets in A549 cells (Homo sapiens, UniProt Q9BTX1); experiment: as above; details: A549 cells, A-DA probe
T2 sequence (Q9BTX1 1-674): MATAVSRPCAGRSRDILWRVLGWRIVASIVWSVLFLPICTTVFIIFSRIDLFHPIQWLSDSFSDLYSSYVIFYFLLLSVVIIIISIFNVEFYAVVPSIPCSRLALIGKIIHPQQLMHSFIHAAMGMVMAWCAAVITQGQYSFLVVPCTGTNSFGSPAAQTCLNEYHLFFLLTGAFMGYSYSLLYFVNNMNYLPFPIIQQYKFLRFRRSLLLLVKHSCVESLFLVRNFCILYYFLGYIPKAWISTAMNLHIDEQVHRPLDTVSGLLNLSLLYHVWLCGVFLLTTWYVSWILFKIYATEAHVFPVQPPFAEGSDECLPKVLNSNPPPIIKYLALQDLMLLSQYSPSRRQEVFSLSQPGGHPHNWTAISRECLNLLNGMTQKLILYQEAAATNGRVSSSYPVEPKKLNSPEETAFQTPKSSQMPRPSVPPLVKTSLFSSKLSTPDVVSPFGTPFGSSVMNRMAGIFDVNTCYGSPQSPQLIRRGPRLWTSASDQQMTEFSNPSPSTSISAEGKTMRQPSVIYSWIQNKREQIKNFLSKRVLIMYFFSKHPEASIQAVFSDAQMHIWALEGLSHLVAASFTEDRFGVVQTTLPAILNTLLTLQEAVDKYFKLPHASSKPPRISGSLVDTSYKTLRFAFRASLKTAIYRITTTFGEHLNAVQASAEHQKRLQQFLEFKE

Chain of A-DA lipid probe targets in A549 cells (Homo sapiens, UniProt Q9NX47) (Q9NX47 whole entry): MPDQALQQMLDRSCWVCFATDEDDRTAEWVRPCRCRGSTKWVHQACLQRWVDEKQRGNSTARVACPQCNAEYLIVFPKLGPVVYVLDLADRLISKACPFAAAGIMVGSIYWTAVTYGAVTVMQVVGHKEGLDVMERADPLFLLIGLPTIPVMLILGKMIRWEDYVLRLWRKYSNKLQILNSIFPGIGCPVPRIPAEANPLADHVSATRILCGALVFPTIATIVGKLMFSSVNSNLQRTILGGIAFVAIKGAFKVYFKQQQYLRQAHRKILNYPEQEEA

CN1CCN(C(=O)c2[nH]c3ccc([N+](=O)[O-])cc3c2-c2ccccc2)CC1 [MJN228, (4-Methylpiperazin-1-yl)(5-nitro-3-phenyl-1H-indol-2-yl)methanone]
NAEs when co-treated with PF-7845 (1 μM) [1]: do not produce elevations
AA levels [1]: do not affect
2-AG levels [1]: modest increase
cellular concentrations of NAEs and NATs [1]: elevated

C=CCN(C)CCCCCCOc1ccc(C(=O)c2ccc(Br)cc2)c(F)c1 [Ro488071]
SILAC ratio, DHRSX (Q8N5I4) ([2]; competitor 5 μM): 1.6
SILAC ratio, DHRSX (Q8N5I4) ([2]; competitor 50 μM): 2.7
SILAC ratio, MARCH5 (Q3KNM2) ([3]; competitor 5 μM): 1.2
SILAC ratio, TMEM48 (Q8VCB1) ([4]; competitor 5 μM): 1.5
SILAC ratio, TMEM48 (Q8VCB1) ([4]; competitor 50 μM): 2.8

CN1CCN(C(=O)c2c(-c3ccccc3)c3cc([N+](=O)[O-])ccc3n2C)CC1 [KML110, (1-Methyl-5-nitro-3-phenyl-1H-indol-2-yl)(4-methylpiperazin-1-yl)methanone]
NAEs when co-treated with PF-7845 (1 μM) [1]: do not produce elevations
AA levels [1]: do not affect
2-AG levels [1]: modest increase
cellular concentrations of NAEs and NATs [1]: elevated

O=C(/C=C/c1cccnc1)NCCCCC1CCN(C(=O)c2ccccc2)CC1 [FK-866, reference compound]
SILAC ratio, DHRSX (Q8N5I4) ([2]; competitor 25 μM): 1.4
SILAC ratio, MARCH5 (Q3KNM2) ([3]; competitor 25 μM): 1.3
SILAC ratio, TMEM48 (Q8VCB1) ([4]; competitor 25 μM): 1.2
